“And” between values parts separate entries of the source, which are not always exact repeats. Equal entries are not always repeated.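 Briefly, cells in 96-well plates were exposed to five compound concentrations for 48 h, and endpoints were estimated by linear interpolation. GI50 = concentration required for 50% inhibition of growth. At the TGI there is no net growth.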
Key:
Assay in all cases: NCI-60 cell line screen, 48 h
DU-145 prostate = tested on: DU-145 prostate
MCF7 breast = tested on: MCF7 breast
NCI/ADR-RES ovarian = tested on: NCI/ADR-RES ovarian
T-47D breast = tested on: T-47D breast
DLD-1 colon = tested on: DLD-1 colon
DMS 114 small cell lung = tested on: DMS 114 small cell lung
HOP-18 NSCLC = tested on: HOP-18 NSCLC
KM20L2 colon = tested on: KM20L2 colon
LXFL 529 NSCLC = tested on: LXFL 529 NSCLC

SMILES | GI50 (DU-145 prostate) [µM] | TGI (DU-145 prostate) | GI50 (MCF7 breast) [µM] | TGI (MCF7 breast) | GI50 (NCI/ADR-RES ovarian) [µM] | TGI (NCI/ADR-RES ovarian) | GI50 (T-47D breast) [µM] | TGI (T-47D breast) | TGI (DLD-1 colon) [µM] | TGI (DMS 114 small cell lung) [µM] | TGI (HOP-18 NSCLC) [µM] | TGI (KM20L2 colon) [µM] | TGI (LXFL 529 NSCLC) [µM] | GI50 (LXFL 529 NSCLC) [µM]
O=C(c1ccc2ccccc2c1)c1c(C(F)(F)F)n([O-])c2cc(F)c(F)cc2[n+]1=O | 1.46 | 4.33 µM | 3.11 | > 100 µM | 2.93 | 11.2 µM | 2.67 | 6.14 µM | – | – | – | – | – | –
COc1cc(/C=C2\CCC/C(=C\c3cc(OC)c(O)c(OC)c3)C2=O)cc(OC)c1O | – | 6.01 µM | 4 | 75 µM and > 100 µM | – | – | – | 75 µM | – | – | – | – | – | –
CCOC(=O)C1=C(c2ccccc2)N(C)c2ccccc2S1 | – | > 100 µM | – | 78.8 µM | – | 65.1 µM | – | 73.9 µM | – | – | – | – | – | –
Cc1ccc(/C(=N\N=C(N)N)c2ccccc2)cc1 | 0.41 | 10.4 µM | 0.292 | 10.2 µM | 1.09 | 4.51 µM | 0.421 | 24.6 µM | – | – | – | – | – | –
C[C@H](NC(=O)[C@@H]1CSSC[C@@H](NC(=O)c2nc3ccccc3cc2O)C(=O)NCC(=O)N1C)c1ccccc1 | 5.78 | 12.7 µM | 0.835 | 2.47 µM | 11 | 50 µM | 1.11 | 3.79 µM | – | – | – | – | – | –
CCn1c(C(=O)N(C2CC2)C2CC2)cc2c3c(ncn3C)c(Nc3cc(C)n(C)n3)nc21 | > 100 | > 100 µM | > 100 | > 100 µM | > 100 | > 100 µM | > 100 | > 100 µM | – | – | – | – | – | –
COc1ccc(NC(=O)C(=O)Cc2nc3ccc([N+](=O)[O-])cc3[nH]c2=O)c(OC)c1 | – | – | – | – | – | – | – | – | > 100 | > 100 | > 100 | > 100 | > 100 | –
NC1CCCCC1.[O]=[Ge].[O]=[Ge].[O]=[Ge][OH].[O]=[Ge][OH] | – | – | – | – | – | – | – | – | > 100 | > 100 | > 100 | > 100 | > 100 | > 100
COc1cc(/C=C\c2ccc(C)cc2)cc(OC)c1OC | – | 0.0843 µM | – | > 100 µM | – | 0.111 µM and 0.158 µM | – | – | > 100 | 20.8 | – | 0.000535 | 46.1 | –
OC1c2ccccc2C2(O)C1C(c1ccccc1)C(c1ccccc1)C2(O)c1ccccc1 (stereo not given) | – | – | – | – | – | – | – | – | – | 41.8 | 34 | 22.5 | 54.6 | –
CCCC(=O)Nc1cc(C(=O)N2C[C@@H]3C[C@]34C2=CC(=O)c2[nH]cc(C)c24)n(COC)c1 | 3.18 | 27.3 µM and 20.9 µM | – | 50 µM and 11.9 µM | 19.7 | 50 µM and 47.7 µM | 2.38 | 30.2 µM and 10.6 µM | – | – | – | – | – | –
COc1ccc(N2Cc3cnc(Nc4ccccc4)nc3N([C@@H]3CC[C@@H](O)C3)C2=O)cc1 | 5.59 | > 25 µM | 16.5 | > 25 µM | 6.9 | > 25 µM | 11.9 | > 25 µM | – | – | – | – | – | –
CCCc1c(CC)c(=N)c2ccccc2n1C | > 100 | > 100 µM | 30 | > 100 µM | > 100 | > 100 µM | 33 | > 100 µM | – | – | – | – | – | –
CCCCS(=O)CCC(N)C(=O)O (stereo not given) | – | > 100 µM | – | > 100 µM | – | > 100 µM | – | > 100 µM | – | – | – | – | – | –
O=Nc1c(-c2c(O)[nH]c3ccc([N+](=O)[O-])cc23)[nH]c2ccc(O)cc12 | 0.305 | – | 0.247 | > 100 µM | 1.44 | > 100 µM | 0.506 | > 100 µM | – | – | – | – | – | –
CCCCCCCCCCCCCCN | – | > 100 µM | – | > 100 µM | – | > 100 µM | – | > 100 µM | – | – | – | – | – | –
CCOC(=O)C1=C(C(=O)c2ccc(C)cc2)C(c2cccc([N+](=O)[O-])c2)C(C(=O)c2ccc(C)cc2)=C(C(=O)OCC)N1 | – | 32.2 µM | – | > 100 µM | – | 39.2 µM | – | 8.84 µM | – | – | – | – | – | –
CCCCc1c2c(nc3c1CCc1cc4cc5c(nc4nc1-3)-c1nc3c(c(CCCC)c1CC5)CCCC3)CCCC2 | – | – | – | – | – | – | – | – | > 100 | 88 | – | 69.3 | > 100 | –
Cc1ccc(S(=O)(=O)NCCNC2=CC(=O)c3nc4ccccc4c4ccnc2c34)cc1 | 19.1 | 51.5 µM | 12.9 | 32.7 µM | 17 | 55.4 µM | 25.6 | 95.9 µM | – | – | – | – | – | –
O=Cc1ccccc1OCCOc1cc(OCCOc2ccccc2C=O)c(OCCOc2ccccc2C=O)cc1OCCOc1ccccc1C=O | – | – | – | – | – | – | – | – | > 100 | > 100 | > 100 | > 100 | > 100 | –
CC1(C)C(=O)C(C)(C)C1=NN | – | – | – | – | – | – | – | – | > 100 | > 100 | – | > 100 | > 100 | –
COc1ccc(-c2nc3sc(-c4ccc(Cl)cc4)cn3n2)cc1 | > 50 | > 50 µM | 2.62 | > 50 µM | 3.75 | > 50 µM | 3.54 | > 50 µM | – | – | – | – | – | –
O=C(O)[C@@H]1[C@H](C(=O)O)[C@H](C(=O)O)C[C@@H]1C(=O)O | – | > 100 µM | – | > 100 µM | – | > 100 µM | – | > 100 µM | – | – | – | – | – | –
CCCCCCCNc1nc(C(=O)OCC)ncc1-c1ccc(C(F)(F)F)cc1 | 46.1 | > 100 µM | 28.1 | > 100 µM | 34.5 | > 100 µM | 28.1 | > 100 µM | – | – | – | – | – | –
O=C1C(c2c[nH]c3ccccc23)=C(c2c[nH]c3ccccc23)C(=O)N1O | > 25 | > 25 µM | > 25 | > 25 µM | > 25 | > 25 µM | > 25 | > 25 µM | – | – | – | – | – | –
CCCn1c(SC)nc(COC(=O)NC)c1COC(=O)NC | – | > 100 µM | – | > 100 µM | – | > 100 µM | – | > 100 µM | – | – | – | – | – | –
O=C(c1ccccc1)C1CCCCN1C(=O)c1ccccc1 (stereo not given) | – | – | – | – | – | – | – | – | > 100 | > 100 | > 100 | > 100 | > 100 | –
COc1cc2c(c(OC)c1OC)-c1ccc(N)c(=O)cc1[C@@H](NC(C)=O)CC2 | 0.0291 | 0.0951 µM | < 0.01 | > 100 µM | 3.43 | 41.2 µM | > 100 | > 100 µM | – | – | – | – | – | –

Reference: PubChem BioAssay (NCI)
